Measurements from ChEMBL document CHEMBL4393714, “Multi-targeting protein-protein interaction inhibitors: Evolution of macrocyclic ligands with embedded carbohydrates (MECs) to improve selectivity” (Eur J Med Chem, 2019).

Experiments:
[1] = Displacement of [3H] batrachotoxinin from rat sodium channel site 2 measured after 60 mins by scintillation counter method
[2] = biological target: 5-hydroxytryptamine receptor 2B (Homo sapiens, UniProt P41595); test: Antagonist activity at human recombinant 5-HT2B receptor in CHOK1 cells measured after 30 mins by HTRF assay; assay type: cell-based
Sequence of 5-hydroxytryptamine receptor 2B (P41595 whole entry): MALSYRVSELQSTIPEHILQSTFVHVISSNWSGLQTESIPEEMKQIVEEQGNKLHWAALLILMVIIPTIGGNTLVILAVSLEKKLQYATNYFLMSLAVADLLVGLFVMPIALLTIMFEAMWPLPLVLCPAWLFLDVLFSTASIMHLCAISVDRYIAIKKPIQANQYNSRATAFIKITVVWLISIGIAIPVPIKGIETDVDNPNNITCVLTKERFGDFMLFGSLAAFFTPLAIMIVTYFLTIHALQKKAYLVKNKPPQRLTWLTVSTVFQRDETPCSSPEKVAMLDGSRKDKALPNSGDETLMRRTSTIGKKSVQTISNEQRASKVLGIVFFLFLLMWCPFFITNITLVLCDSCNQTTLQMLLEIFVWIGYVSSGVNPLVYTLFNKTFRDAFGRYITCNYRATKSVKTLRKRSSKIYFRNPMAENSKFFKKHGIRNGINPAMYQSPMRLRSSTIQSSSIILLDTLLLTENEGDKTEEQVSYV

[3] = biological target: 5-hydroxytryptamine receptor 2A (Homo sapiens, UniProt P28223); test: Displacement of [3H] ketanserin from human recombinant 5-HT2A receptor measured after 60 mins by scintillation counter method
Sequence of 5-hydroxytryptamine receptor 2A (P28223 whole entry): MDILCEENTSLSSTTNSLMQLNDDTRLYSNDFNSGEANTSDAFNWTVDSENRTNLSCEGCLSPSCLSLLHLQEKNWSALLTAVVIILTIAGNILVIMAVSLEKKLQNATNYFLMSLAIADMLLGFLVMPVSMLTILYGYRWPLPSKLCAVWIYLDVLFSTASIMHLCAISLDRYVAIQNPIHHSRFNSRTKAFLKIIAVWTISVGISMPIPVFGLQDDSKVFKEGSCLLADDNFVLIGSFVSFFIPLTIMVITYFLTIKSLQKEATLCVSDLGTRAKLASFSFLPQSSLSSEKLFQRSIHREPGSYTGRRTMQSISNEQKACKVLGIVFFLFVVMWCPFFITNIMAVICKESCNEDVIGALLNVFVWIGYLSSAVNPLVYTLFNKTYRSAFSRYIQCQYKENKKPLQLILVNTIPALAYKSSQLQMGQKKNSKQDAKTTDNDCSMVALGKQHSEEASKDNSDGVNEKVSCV

[4] = biological target: T1, Substance-K receptor (Homo sapiens, UniProt P21452); test: Displacement of [125I]NKA from human recombinant NK2 receptor measured after 60 mins by scintillation counter method
T1 sequence (P21452 whole entry): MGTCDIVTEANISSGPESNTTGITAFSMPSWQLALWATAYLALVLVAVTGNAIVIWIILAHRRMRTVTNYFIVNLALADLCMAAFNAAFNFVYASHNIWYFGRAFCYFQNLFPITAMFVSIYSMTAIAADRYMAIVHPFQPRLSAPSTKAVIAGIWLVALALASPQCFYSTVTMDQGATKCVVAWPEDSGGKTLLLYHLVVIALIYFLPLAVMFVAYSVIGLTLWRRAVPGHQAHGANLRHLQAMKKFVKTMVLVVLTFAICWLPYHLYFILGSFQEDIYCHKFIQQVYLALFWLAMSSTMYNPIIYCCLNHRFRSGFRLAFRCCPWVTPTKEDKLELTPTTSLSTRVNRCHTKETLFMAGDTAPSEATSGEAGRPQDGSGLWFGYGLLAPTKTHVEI

[5] = biological target: Sodium-dependent serotonin transporter (Homo sapiens, UniProt P31645); test: Displacement of [3H] imipramine from human recombinant 5-HT transporter measured after 60 mins by scintillation counter method
Sequence of Sodium-dependent serotonin transporter (P31645 whole entry): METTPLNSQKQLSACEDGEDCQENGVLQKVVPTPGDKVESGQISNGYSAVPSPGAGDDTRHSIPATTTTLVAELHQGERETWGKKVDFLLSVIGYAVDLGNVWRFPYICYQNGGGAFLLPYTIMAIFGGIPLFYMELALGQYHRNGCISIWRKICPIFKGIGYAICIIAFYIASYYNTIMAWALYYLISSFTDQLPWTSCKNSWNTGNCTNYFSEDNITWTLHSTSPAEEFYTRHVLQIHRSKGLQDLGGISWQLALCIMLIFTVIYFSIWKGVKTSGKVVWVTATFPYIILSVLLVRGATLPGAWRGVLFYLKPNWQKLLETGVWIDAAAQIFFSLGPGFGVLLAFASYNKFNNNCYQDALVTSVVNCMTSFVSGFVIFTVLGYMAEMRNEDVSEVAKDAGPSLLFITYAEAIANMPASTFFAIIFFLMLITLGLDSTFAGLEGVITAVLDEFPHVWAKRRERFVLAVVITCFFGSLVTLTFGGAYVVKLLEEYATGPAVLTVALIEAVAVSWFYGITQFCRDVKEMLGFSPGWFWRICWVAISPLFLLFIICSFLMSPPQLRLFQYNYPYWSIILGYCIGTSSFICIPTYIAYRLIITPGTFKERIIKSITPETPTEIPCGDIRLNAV

[6] = biological target: T2, 5-hydroxytryptamine receptor 1A (Homo sapiens, UniProt P08908); test: Displacement of [3H]OH-DPAT from human recombinant 5-HT1A receptor measured after 60 mins by scintillation counter method
T2 sequence (P08908 whole entry): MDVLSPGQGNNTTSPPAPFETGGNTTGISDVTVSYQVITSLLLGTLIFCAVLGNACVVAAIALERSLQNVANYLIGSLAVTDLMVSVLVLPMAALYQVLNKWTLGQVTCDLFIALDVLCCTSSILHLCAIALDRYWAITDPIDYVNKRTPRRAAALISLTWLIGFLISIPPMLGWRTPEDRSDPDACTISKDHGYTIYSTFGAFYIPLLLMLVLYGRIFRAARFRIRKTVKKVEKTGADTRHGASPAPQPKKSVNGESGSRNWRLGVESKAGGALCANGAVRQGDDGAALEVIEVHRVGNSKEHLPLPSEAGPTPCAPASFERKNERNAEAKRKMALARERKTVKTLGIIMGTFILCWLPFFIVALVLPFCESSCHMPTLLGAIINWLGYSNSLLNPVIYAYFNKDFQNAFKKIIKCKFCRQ

| SMILES | IC50 [1] [µM] | Ki [1] [µM] | IC50 [2] [µM] | Ki [2] [µM] | IC50 [3] [µM] | Ki [3] [µM] | IC50 [4] [µM] | Ki [4] [µM] | IC50 [5] [µM] | Ki [5] [µM] | IC50 [6] [µM] | Ki [6] [µM] |
| --- | --- | --- | --- | --- | --- | --- | --- | --- | --- | --- | --- | --- |
| COc1ccc(C(=O)O[C@H]2CC[C@@]3(C)[C@@H]4CC[C@H]5[C@]6(O)C[C@H](O)[C@@]7(O)[C@@H](CN8C[C@@H](C)CC[C@H]8[C@@]7(C)O)[C@]6(O)C[C@@]53O[C@]24O)cc1OC [VERATRIDINE] | 8.9 | 8.1 |  |  |  |  |  |  |  |  |  |  |
| CN1C[C@@H](NS(=O)(=O)N(C)C)C[C@@H]2c3cccc4c3c(cn4C)C[C@H]21 [MESULERGINE] |  |  | 0.0052 | 0.0028 |  |  |  |  |  |  |  |  |
| CC(C)CCO[C@@H]1[C@H]2OC(C)(C)O[C@H]2[C@H]2COCc3cn(nn3)C[C@H]3O[C@H](CCN(CCc4ccc5ccccc5c4)CC[C@H]1O2)[C@H](OCCC(C)C)[C@H]1OC(C)(C)O[C@H]13 | 0.46 | 0.41 | 15 | 8.2 | 8.7 | 4.7 | 3 | 1.6 | > 100 | > 100 | 0.68 | 0.42 |
